Test results published in ChEMBL document CHEMBL5131510, “Proteostasis Regulators in Cystic Fibrosis: Current Development and Future Perspectives” (J Med Chem, 2022).
Blank lines part the entries; values can stand above or below the molecule they belong to. Where a SMILES comes first, the peptide text is derived from it. Bridges are numbered along the chain shown (N, C = ends).

How the values were obtained:
[1] = test system: Cystic fibrosis transmembrane conductance regulator (Homo sapiens), P13569 [F508del]; test: Modulation of F508del-CFTR mutant in HBE cells assessed as fold increase in CFTR mRNA levels by […]; type: cell-based; settings: filed as modulator
Sequence of Cystic fibrosis transmembrane conductance regulator (Homo sapiens), P13569 [F508del] (P13569 as listed by the source): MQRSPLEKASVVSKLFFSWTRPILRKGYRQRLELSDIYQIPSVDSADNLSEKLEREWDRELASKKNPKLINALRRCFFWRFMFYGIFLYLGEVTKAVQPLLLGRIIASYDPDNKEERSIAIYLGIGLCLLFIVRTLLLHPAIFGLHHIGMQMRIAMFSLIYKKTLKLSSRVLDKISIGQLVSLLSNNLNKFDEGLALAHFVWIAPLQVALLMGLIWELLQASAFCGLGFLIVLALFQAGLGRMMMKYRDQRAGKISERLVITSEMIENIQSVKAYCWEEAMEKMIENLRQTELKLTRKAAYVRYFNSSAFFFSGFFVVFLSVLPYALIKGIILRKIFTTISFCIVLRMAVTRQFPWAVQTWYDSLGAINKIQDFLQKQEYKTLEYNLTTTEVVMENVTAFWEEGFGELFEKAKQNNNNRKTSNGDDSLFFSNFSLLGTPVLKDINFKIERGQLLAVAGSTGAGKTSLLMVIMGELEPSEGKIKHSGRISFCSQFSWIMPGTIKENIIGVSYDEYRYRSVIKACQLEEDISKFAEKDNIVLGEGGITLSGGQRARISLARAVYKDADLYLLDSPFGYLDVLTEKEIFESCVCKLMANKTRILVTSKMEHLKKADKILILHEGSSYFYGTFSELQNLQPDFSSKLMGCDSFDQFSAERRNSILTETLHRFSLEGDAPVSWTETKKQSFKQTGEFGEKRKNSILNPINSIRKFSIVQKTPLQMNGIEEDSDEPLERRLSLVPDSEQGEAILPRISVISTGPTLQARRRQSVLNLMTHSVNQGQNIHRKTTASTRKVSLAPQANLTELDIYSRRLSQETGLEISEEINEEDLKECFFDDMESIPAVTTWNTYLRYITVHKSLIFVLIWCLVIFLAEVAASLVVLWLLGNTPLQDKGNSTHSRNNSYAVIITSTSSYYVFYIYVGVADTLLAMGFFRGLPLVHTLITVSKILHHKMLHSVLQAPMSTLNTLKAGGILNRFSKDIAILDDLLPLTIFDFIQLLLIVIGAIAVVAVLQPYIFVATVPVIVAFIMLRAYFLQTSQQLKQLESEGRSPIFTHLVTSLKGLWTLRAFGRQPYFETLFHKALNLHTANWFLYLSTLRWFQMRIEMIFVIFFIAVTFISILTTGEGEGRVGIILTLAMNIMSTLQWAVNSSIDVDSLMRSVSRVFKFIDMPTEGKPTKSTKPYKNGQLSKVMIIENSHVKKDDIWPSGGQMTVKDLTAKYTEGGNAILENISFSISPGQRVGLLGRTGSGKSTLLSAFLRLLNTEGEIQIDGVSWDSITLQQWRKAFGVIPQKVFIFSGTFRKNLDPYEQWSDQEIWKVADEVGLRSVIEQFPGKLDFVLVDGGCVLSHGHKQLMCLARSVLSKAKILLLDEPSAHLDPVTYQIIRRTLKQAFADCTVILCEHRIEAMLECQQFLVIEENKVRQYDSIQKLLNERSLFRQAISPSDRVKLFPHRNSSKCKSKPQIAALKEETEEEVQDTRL

[2] = target: T1, Protein mono-ADP-ribosyltransferase PARP3 (Homo sapiens, UniProt Q9Y6F1); test: Inhibition of recombinant human PARP3 expressed in baculovirus expression system using anchored-histone proteins as substrate incubated for 1 hr by chemiluminescence assay
T1 sequence (Q9Y6F1 whole entry): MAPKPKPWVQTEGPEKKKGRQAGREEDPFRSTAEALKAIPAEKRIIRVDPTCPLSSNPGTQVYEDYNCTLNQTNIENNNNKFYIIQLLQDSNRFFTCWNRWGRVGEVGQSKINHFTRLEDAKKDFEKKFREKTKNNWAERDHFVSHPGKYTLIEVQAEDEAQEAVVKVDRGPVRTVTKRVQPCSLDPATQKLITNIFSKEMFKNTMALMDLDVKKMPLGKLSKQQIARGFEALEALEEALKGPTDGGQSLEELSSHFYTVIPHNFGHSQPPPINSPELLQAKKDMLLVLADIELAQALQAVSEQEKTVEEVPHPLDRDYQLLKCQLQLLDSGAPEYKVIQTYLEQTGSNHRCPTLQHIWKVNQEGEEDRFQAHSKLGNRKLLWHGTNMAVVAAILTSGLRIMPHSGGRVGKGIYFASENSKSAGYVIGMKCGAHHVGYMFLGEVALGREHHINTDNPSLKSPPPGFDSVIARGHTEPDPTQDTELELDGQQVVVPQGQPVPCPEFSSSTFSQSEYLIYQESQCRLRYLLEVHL

[3] = target: T2, Protein mono-ADP-ribosyltransferase PARP16 (Homo sapiens, UniProt Q8N5Y8); test: Inhibition of PARP16 (unknown origin) using 6xHis-tagged IRE-1 as substrate incubated for 1 hr by chemiluminescence assay
T2 sequence (Q8N5Y8 whole entry): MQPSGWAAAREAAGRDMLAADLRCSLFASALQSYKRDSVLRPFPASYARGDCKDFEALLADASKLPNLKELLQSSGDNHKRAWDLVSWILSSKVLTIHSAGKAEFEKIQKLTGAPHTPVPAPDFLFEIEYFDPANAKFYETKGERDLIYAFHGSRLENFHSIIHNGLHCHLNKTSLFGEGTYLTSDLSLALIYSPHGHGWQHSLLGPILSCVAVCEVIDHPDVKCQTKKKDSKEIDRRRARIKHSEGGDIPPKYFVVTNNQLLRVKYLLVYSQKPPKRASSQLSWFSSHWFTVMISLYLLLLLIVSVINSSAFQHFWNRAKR

Homo sapiens = organism: Homo sapiens; test: Inhibition of Hsp70 ATPase activity (unknown origin) at 200 uM incubated for 3 hrs in presence of ATP by malachite green assay relative to control
[4] = target: T3, Golgi-associated PDZ and coiled-coil motif-containing protein (Homo sapiens, UniProt Q9HD26); test: Inhibition of CAL PDZ domain (unknown origin) assessed as inhibition constant by fluorescence polarization competition assay
[5] = test system: Cystic fibrosis transmembrane conductance regulator (Homo sapiens), P13569 [F508del]; test: Modulation of F508del-CFTR mutant transfected in human HEK293 cells assessed as fold increase in level of ER glycosylated form of F508del-CFTR at 30 uM treated for 24 hrs by immunoblot assay; type: cell-based; settings: filed as modulator
[6] = target: T3, Golgi-associated PDZ and coiled-coil motif-containing protein; test: Binding affinity to CAL PDZ domain (unknown origin) assessed as dissociation constant in presence of tris(carboxylethyl)phosphine by fluorescence anisotropy analysis
[7] = Rescue of F508del-CFTR residual channel activity in hamster BHK cells assessed as fold increase in forskolin/genistein-induced iodide efflux measured every minute for 10 mins
[8] = Inhibition of Hsp40-stimulated yeast Hsp70 ATPase activity assessed as inhibition constant by single-turnover assay; design: species or system Saccharomyces cerevisiae
[9] = test system: Cystic fibrosis transmembrane conductance regulator (Homo sapiens), P13569 [F508del]; test: Stabilization of F508del-CFTR in human CFBE41o- cells assessed as OUTB1 occupancy by Proteomic analysis relative to control; type: cell-based
[10] = Ex vivo inhibition of PARP-1 in ileum of cystic fibrosis mouse model assessed as rescue of F508del-CFTR activity at 1 nM treated for 4 hrs in presence of forskolin/genistein relative to control; type: functional; design: scale not given: the % may be the effect or the level left
Mus musculus = test: In vivo rescue of F508del-CFTR activity in cystic fibrosis mouse model assessed as measuring salivary secretion at 5 mg/kg/day, ip qd for 2 days relative to control; type: functional; settings: time 2 day

fold change (FC) [1]: 1.5
Compound: O=C(NCCCn1nncc1CO)c1cc(-c2ccccc2)on1

IC50 [2]: 74.1 µM | IC50 [3]: 0.362 µM
Compound: O=C1NC[C@@H](c2ccccn2)[C@@H](O)c2cc(Cl)c(Cl)cc21

inhibition (Homo sapiens): 55%
Compound: COc1ccc(-c2nc(-c3cc(C(F)(F)F)cc(C(F)(F)F)c3)n(Cc3ccc(C(N)=O)cc3)c2-c2ccc(OC)cc2)cc1

Ki [4]: 2.3 µM
Compound: CC(=O)N[C@@H](Cc1c[nH]c2ccccc12)C(=O)N[C@@H](CCC(N)=O)C(=O)N[C@H](C(=O)N[C@H](C(=O)N[C@@H](CCCNC(=N)N)C(=O)N[C@H](C(=O)O)C(C)C)[C@@H](C)O)C(C)C (Ac-WQVTRV-OH)

fold change (FC) [5]: 2.1
Compound: CC1=C(C(=O)OCc2ccccc2)C(c2ccc(Cl)cc2Cl)NC(=O)N1CCCC(=O)O (stereo not given)

IC50 [2]: 3.1 µM | IC50 [3]: 296 µM
Compound: O=C1NC[C@@H](c2ccccc2)[C@@H](O)c2ccccc21

Kd [6]: 0.49 µM
Compound: CC(=O)N[C@H]1CSSC[C@@H](C(=O)N[C@H](C(=O)N[C@@H](CCCNC(=N)N)C(=O)N[C@H](C(=O)O)C(C)C)[C@@H](C)O)NC(=O)[C@H](CCC(N)=O)NC(=O)[C@H](Cc2c[nH]c3ccccc23)NC(=O)[C@H](Cc2ccccc2)NC(=O)[C@H](CCCNC(=N)N)NC(=O)[C@H](CCCNC(=N)N)NC(=O)[C@H](CCCNC(=N)N)NC(=O)[C@H](CCCNC(=N)N)NC1=O (Ac-CRRRRFWQCTRV-OH; disulfide 1-9)

Compound: N#CCc1nnc(-c2ccccn2)[nH]1
fold change (FC) [7]: 2.5

Compound: CCN(CC)c1ccc(N/N=C2\C(=O)C=Cc3ccccc32)cc1
fold change (FC) [7]: 2.5

Ki [8]: 10 µM
Compound: CCCCCCCCCCCCC/C=C/[C@@H](O)[C@H](COC1O[C@H](CO)[C@H](O)[C@H](OS(=O)(=O)O)[C@H]1O)NC(=O)CC12CC3CC(CC(C3)C1)C2 (stereo not given in full)

Activity [9]: 60%
Compound: C=CC(=O)N1CCN(c2ccc(CCC(=O)NCCCCCNC(=O)c3cccc(-c4nc(NC(=O)C5(c6ccc7c(c6)OC(F)(F)O7)CC5)ccc4C)c3)o2)C(=O)C1

Compound: C[C@]1(c2nc3c(C(N)=O)cccc3[nH]2)CCCN1 [VELIPARIB]
Activity [10]: 7% | Activity (Mus musculus): 7.8%
